Source: ChEMBL document CHEMBL2331525, “Nudibaccatumone, a trimer comprising a phenylpropanoid and two sesquiterpene moieties from Piper nudibaccatum” (J Nat Prod, 2013)
Calls of active or inactive are those of the source. The rule behind the calls is not given here.

Legend:
Staphylococcus aureus [1] = assay: Antimicrobial activity against Staphylococcus aureus at 100 uM by microdilution method; type: functional, organism-based
K562 [2] = assay: Cytotoxicity against human K562 cells at 100 uM by MTT assay; type: functional, cell-based
A549 [3] = assay: Cytotoxicity against human A549 cells at 100 uM by SRB assay; type: functional, cell-based
Escherichia coli [4] = assay: Antimicrobial activity against Escherichia coli at 100 uM by microdilution method; type: functional, organism-based
Candida albicans [5] = assay: Antimicrobial activity against Candida albicans at 100 uM by microdilution method; type: functional, organism-based
A549 [6] = assay: Cytotoxicity against human A549 cells by SRB assay; type: functional, cell-based
K562 [7] = assay: Cytotoxicity against human K562 cells by MTT assay; type: functional, cell-based
Staphylococcus aureus [8] = assay: Antimicrobial activity against Staphylococcus aureus by microdilution method; type: functional, organism-based
Escherichia coli [9] = assay: Antimicrobial activity against Escherichia coli by microdilution method; type: functional, organism-based
Candida albicans [10] = assay: Antimicrobial activity against Candida albicans by microdilution method; type: functional, organism-based

## C/C1=C\CC[C@]2(C)[C@@H]3C(=O)C(=O)[C@@H](C=C3/C=C/C[C@@]3(C)CC[C@H]4C3=C[C@H](C(C)(C)O)CC[C@H]4C)[C@H]2[C@H]2[C@H](CC1)C2(C)C
Staphylococcus aureus [1]
  Activity: inactive
K562 [2]
  Activity: inactive
A549 [3]
  Activity: inactive
Escherichia coli [4]
  Activity: inactive
Candida albicans [5]
  Activity: inactive

## COc1cccc2c1C(=O)c1c(O)c3c(c(O)c1C2=O)C[C@@](O)(C(=O)CO)C[C@@H]3O[C@H]1C[C@H](N)[C@H](O)[C@H](C)O1 [DOXORUBICIN]
A549 [6]
  IC50: 0.049 µM
K562 [7]
  IC50: 0.28 µM

## GENTAMICIN
Staphylococcus aureus [8]
  MIC: 0.05 µg/mL
Escherichia coli [9]
  MIC: 1.2 µg/mL

## NYSTATIN
Candida albicans [10]
  MIC: 1 µg/mL
